Results reported in ChEMBL document CHEMBL2203115, “Design and synthesis of procollagen C-proteinase inhibitors” (Bioorg Med Chem Lett, 2012).
Peptide text beside a SMILES is read from it. * marks the point of attachment. NHOH = ON*

Each compound was assayed on 3T3-L1 (assay: Cytotoxicity against mouse 3T3L1 cells).
Assay type: cell-based

Row | SMILES | IC50 [µM]
1 | COc1ccc(CCN(CCC(=O)NO)S(=O)(=O)c2ccc(/C(N)=N/O)cc2)cc1 | 150

These compounds were tested against T1, Interstitial collagenase (Homo sapiens, UniProt P03956) (assay: Inhibition of para-amino phenylmercuric acetate-activated MMP1 using Mca-P-L-G-L-Dap(Dnp)-A-R-NH2 as substrate after 1 hr by fluorescence assay).
T1 sequence (P03956 whole entry): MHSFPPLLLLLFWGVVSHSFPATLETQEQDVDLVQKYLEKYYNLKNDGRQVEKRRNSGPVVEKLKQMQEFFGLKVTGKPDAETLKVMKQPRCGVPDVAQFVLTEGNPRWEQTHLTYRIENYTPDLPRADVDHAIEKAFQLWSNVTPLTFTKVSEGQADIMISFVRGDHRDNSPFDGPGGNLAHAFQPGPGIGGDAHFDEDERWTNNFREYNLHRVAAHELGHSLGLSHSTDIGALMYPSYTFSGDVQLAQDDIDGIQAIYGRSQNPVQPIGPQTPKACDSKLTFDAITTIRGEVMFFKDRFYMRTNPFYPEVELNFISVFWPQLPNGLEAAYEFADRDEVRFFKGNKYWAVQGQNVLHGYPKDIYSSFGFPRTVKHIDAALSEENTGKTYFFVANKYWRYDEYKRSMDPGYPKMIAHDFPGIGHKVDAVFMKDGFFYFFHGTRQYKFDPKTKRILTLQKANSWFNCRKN

Row | IC50 [µM] | SMILES
2 | > 25 | COc1ccc(CCN(CCC(=O)NO)S(=O)(=O)c2ccc(NC(=O)NCc3ccccc3)cc2)cc1
3 | > 25 | COc1ccc(CCN(CCC(=O)NO)S(=O)(=O)c2ccc(/C(N)=N/O)cc2)cc1

These compounds were tested against Matrix metalloproteinase-9 (Homo sapiens, UniProt P14780) (assay: Inhibition of para-amino phenylmercuric acetate-activated MMP9 using Mca-P-L-G-L-Dap(Dnp)-A-R-NH2 as substrate after 1 hr by fluorescence assay).
Matrix metalloproteinase-9, sequence (P14780 whole entry): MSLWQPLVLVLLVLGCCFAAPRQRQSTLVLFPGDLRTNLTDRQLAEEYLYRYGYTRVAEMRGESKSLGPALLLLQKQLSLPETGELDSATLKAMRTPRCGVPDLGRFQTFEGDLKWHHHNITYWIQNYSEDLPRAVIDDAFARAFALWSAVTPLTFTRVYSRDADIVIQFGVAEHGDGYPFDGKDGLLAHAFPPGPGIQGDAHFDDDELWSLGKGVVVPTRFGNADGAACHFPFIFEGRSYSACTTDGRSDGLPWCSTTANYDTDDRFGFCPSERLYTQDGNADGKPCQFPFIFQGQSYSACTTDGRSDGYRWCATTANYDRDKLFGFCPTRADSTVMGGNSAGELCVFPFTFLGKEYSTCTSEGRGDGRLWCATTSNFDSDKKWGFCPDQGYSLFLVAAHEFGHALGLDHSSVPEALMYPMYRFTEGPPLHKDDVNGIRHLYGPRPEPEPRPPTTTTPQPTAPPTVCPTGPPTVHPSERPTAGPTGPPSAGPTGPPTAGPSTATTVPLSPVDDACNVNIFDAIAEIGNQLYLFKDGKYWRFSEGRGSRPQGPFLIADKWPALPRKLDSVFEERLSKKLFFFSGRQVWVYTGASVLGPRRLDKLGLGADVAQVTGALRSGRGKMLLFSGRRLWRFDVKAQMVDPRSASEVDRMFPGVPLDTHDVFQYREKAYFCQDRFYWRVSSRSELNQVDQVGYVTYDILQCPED

Row | IC50 [µM] | SMILES
4 | > 25 | COc1ccc(CCN(CCC(=O)NO)S(=O)(=O)c2ccc(NC(=O)NCc3ccccc3)cc2)cc1
5 | > 25 | COc1ccc(CCN(CCC(=O)NO)S(=O)(=O)c2ccc(/C(N)=N/O)cc2)cc1
6 | > 6 | COc1ccc(CCN(CCC(=O)NO)S(=O)(=O)c2ccc(S(C)(=O)=O)cc2)cc1
7 | 0.05 | COc1ccc(S(=O)(=O)N(CC(=O)NO)Cc2ccc(Cl)cc2)cc1

The compounds below were run against 72 kDa type IV collagenase (Homo sapiens, UniProt P08253) (assay: Inhibition of para-amino phenylmercuric acetate-activated MMP2 using Mca-P-L-G-L-Dap(Dnp)-A-R-NH2 as substrate after 1 hr by fluorescence assay).
72 kDa type IV collagenase, sequence (P08253 whole entry): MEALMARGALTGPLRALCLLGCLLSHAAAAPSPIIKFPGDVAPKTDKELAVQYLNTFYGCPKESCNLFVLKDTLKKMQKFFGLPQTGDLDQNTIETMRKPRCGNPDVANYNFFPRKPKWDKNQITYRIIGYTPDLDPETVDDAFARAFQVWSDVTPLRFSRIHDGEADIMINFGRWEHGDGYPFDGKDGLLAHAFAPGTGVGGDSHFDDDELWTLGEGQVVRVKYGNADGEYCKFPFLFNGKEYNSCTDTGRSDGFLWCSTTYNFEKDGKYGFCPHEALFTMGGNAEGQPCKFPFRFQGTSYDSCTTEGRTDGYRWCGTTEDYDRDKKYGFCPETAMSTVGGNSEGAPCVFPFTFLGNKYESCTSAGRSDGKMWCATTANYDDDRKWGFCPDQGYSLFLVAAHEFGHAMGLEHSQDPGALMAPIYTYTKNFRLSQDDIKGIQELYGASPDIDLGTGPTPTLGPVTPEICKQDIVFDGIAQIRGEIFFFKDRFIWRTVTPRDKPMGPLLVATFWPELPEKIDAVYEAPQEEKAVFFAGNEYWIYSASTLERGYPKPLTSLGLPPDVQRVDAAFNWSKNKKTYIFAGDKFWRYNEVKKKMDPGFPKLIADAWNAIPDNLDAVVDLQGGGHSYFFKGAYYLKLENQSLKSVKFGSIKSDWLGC

Row | IC50 [µM] | SMILES
8 | > 25 | COc1ccc(CCN(CCC(=O)NO)S(=O)(=O)c2ccc(NC(=O)NCc3ccccc3)cc2)cc1
9 | > 25 | COc1ccc(CCN(CCC(=O)NO)S(=O)(=O)c2ccc(/C(N)=N/O)cc2)cc1
10 | > 6 | COc1ccc(CCN(CCC(=O)NO)S(=O)(=O)c2ccc(S(C)(=O)=O)cc2)cc1
11 | 0.14 | COc1ccc(S(=O)(=O)N(CC(=O)NO)Cc2ccc(Cl)cc2)cc1

These compounds were tested against T2, Bone morphogenetic protein 1 (Homo sapiens, UniProt P13497) (assay: Inhibition of PCP after 1 hr by fluorescence assay).
T2 sequence (P13497 whole entry): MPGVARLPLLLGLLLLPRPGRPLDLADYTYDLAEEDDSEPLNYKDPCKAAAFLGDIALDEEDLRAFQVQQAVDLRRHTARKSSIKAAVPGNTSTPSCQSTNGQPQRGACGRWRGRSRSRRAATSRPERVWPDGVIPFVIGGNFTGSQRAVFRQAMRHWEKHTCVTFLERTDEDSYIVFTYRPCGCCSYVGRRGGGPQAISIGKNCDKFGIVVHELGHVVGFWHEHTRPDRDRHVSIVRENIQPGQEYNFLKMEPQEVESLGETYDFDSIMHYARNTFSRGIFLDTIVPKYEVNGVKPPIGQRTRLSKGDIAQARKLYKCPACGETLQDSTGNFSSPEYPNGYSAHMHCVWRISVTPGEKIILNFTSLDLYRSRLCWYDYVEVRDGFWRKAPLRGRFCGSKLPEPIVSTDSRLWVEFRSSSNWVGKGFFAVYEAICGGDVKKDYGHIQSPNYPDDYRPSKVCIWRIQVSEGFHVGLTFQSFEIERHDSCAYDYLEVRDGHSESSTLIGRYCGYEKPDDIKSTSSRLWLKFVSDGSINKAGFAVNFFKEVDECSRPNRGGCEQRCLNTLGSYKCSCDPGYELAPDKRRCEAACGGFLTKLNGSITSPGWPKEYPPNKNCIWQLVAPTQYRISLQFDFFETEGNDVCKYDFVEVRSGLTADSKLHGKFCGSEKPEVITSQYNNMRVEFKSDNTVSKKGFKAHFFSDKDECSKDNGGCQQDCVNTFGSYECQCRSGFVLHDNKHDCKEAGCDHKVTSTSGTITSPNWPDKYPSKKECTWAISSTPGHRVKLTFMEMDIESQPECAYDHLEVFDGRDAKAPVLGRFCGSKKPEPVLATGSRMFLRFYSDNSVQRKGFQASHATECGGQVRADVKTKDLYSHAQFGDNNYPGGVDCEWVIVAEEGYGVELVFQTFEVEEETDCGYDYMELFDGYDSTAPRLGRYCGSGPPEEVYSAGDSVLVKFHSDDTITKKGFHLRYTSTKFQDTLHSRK

Row | SMILES | IC50 [µM]
12 | COc1ccc(S(=O)(=O)N(CCC(=O)NO)CCc2ccc(OC)c(OC)c2)cc1 | 42
13 | COc1ccc(S(=O)(=O)NCCC(=O)NO)cc1 | 166
14 | CCCCS(=O)(=O)N(CCc1ccc(OC)cc1)CC(=O)NO | 55
15 | CC(C)(C)c1ccc(S(=O)(=O)N(CCC(=O)NO)CCc2ccccc2)cc1 | 17
16 | COc1ccc(CCN(CCN(O)C(N)=O)S(=O)(=O)c2ccc(S(C)(=O)=O)cc2)cc1 | > 100
17 | COc1ccc(S(=O)(=O)N(CCCC(=O)NO)c2ccccc2)cc1 | 28
18 | COc1ccc(S(=O)(=O)N(CC(=O)NO)Cc2ccc(F)cc2)cc1 | 34
19 | CCCCOC(=O)CN(CC(=O)NO)S(=O)(=O)c1ccc(OC)cc1 | 167
20 | COc1ccc(N(CC(=O)NO)S(=O)(=O)c2ccc(OC)cc2)cc1 | 73
21 | COc1ccc(CCN(CC(=O)NO)S(=O)(=O)c2ccc(OC)cc2)cc1 | 18
22 | COc1ccc(S(=O)(=O)N(CC(=O)NO)Cc2ccc(C(F)(F)F)cc2)cc1 | 67
23 | COc1ccc(S(=O)(=O)N(CC(=O)NO)C(c2ccccc2)c2ccccc2)cc1 | 102
24 | COc1ccc(S(=O)(=O)N(CCC(=O)NO)CCc2ccc(S(N)(=O)=O)cc2)cc1 | 23
25 | CNC(=O)[C@H](CCC(=O)O)NC(=O)[C@H](CC(=O)O)NCC(=O)O | 1500
26 | CNC(=O)[C@H](CCC(=O)O)NC(=O)C(CS)CC(=O)O (stereo not given in full) | 85
27 | COc1ccc(S(=O)(=O)N(CC(=O)NO)c2ccccc2)cc1 | 69
28 | COc1ccc(S(=O)(=O)N(CC(=O)NO)Cc2ccc(Cl)cc2)cc1 | 19
29 | COc1ccc(S(=O)(=O)N(CC(=O)O)CC(=O)NO)cc1 | 345
30 | COc1ccc(S(=O)(=O)N(CCc2ccccc2)CC(=O)NO)cc1 | 18
31 | COc1ccc(CN(CC(=O)NO)S(=O)(=O)c2ccc(OC)cc2)cc1 | 29
32 | CCC(C)N(CC(=O)NO)S(=O)(=O)c1ccc(OC)cc1 (stereo not given) | 112
33 | CC(=O)N1CCC[C@H]1C(=O)N[C@@H](Cc1ccc(O)cc1)C(=O)N[C@@H](Cc1ccc(O)cc1)C(=O)NCC(=O)NO (Ac-PYYG-{NHOH}) | 42
34 | CNC(=O)[C@H](CCC(=O)O)NC(=O)C(CC(=O)O)CC(=O)NO (mixture of isomers) | 40

Continued, values first:

Row | IC50 [µM] | SMILES
35 | 16 | COc1ccc(S(=O)(=O)N(CC(=O)NO)Cc2ccccc2)cc1
36 | 14 | COc1ccc(CCN(CCCS)S(=O)(=O)c2ccc(S(C)(=O)=O)cc2)cc1
37 | 13 | COc1ccc(CCN(CCC(=O)CS)S(=O)(=O)c2ccc(S(C)(=O)=O)cc2)cc1
38 | 11 | COc1ccc(S(=O)(=O)N(CCC(=O)NO)CCc2ccc([N+](=O)[O-])cc2)cc1
39 | 10 | COc1ccc(S(=O)(=O)N(CCCC(=O)NO)Cc2ccccc2)cc1
40 | 10 | COc1ccc(S(=O)(=O)N[C@@H](CC(=O)O)C(=O)NO)cc1
41 | 9.4 | COc1ccc(CCN(CCS)S(=O)(=O)c2ccc(S(C)(=O)=O)cc2)cc1
42 | 9.1 | COc1ccc(CCN(CCC(=O)NO)S(=O)(=O)c2ccccc2S(C)(=O)=O)cc1
43 | 8.1 | COc1ccc(S(=O)(=O)N(CCC(=O)NO)CCc2ccccn2)cc1
44 | 7.1 | COc1ccc(CCN(CCC(=O)NO)S(=O)(=O)c2ccccc2/C(N)=N\O)cc1
45 | 6.7 | CCCCS(=O)(=O)N(CCC(=O)NO)CCc1ccc(OC)cc1
46 | 4.7 | COc1ccc(CCN(CC(=O)CS)S(=O)(=O)c2ccc(S(C)(=O)=O)cc2)cc1
47 | 4.5 | COc1ccc(S(=O)(=O)N(CCC(=O)NO)Cc2ccccc2)cc1
48 | 3 | COc1ccc(S(=O)(=O)N(CCC(=O)NO)c2ccccc2)cc1
49 | 2.8 | COc1ccc(S(=O)(=O)N(Cc2ccccc2)[C@@H](CC(=O)O)C(=O)NO)cc1
50 | 2.3 | COc1ccc(S(=O)(=O)N(CCC(=O)NO)CCc2cccc(OC)c2)cc1
51 | 2.2 | O=C(CCN(CCc1ccccc1)S(=O)(=O)c1ccccc1)NO
52 | 1.7 | CCC(C)N(CCC(=O)NO)S(=O)(=O)c1ccc(OC)cc1 (stereo not given)
53 | 1.7 | COc1ccc(N(CCC(=O)NO)S(=O)(=O)c2ccc(OC)cc2)cc1
54 | 1 | O=C(CCN(CCc1ccccc1)S(=O)(=O)c1ccc(C(=O)O)cc1)NO
55 | 1 | COc1ccc(S(=O)(=O)N(CCC(=O)NO)CC2CCCCC2)cc1
